Reference: patent publication US20110217715A1, “GENE EXPRESSION IN DUCHENNE MUSCULAR DYSTROPHY” (CHILDREN'S HOSPITAL MEDICAL CENTER, priority 2008, published 2011)

Tested on: mRNA expression in peripheral blood of individuals with DMD
Assay: Whole-blood gene expression microarray: DMD administered deflazacort vs DMD administered prednisone
Type: in vivo, human
Experimental: Fifteen ml of blood was collected from each individual into 6 PAXgene® Vacutainer® tubes (PreAnalytiX, Germany) by antecubital fossa venipuncture. PAXgene® tubes contain a proprietary reagent that immediately stabilizes RNA, thus reducing RNA degradation and minimizing gene expression changes following phlebotomy. The tubes were then inverted 20 times, then remained undisturbed for 2 h at room temperature (about 19° C. to about 22° C.), and then stored at -70° C. until processed. Total RNA was isolated using the Paxgene® blood RNA kit (PreAnalytiX, Germany) according to the manufacturers instructions. The RNA isolated is from all cells in whole blood. Typical yields of total RNA isolated from about 7.5 ml of human whole blood were between 10 μg RNA and 40 μg RNA. RNA quality and purity was analyzed by spectrophotometry using the Nanodrop ND-1000, and RNA integrity was analyzed using the Agilent 2100 Bioanalyzer. […] Sample labeling, hybridization to chips, and image scanning were performed using standard Affymetrix protocols. For each whole blood sample from control individuals and individuals with DMD, total RNA was labeled using the One-Cycle Target Labeling protocol and hybridized to the arrays. […] Double-stranded cDNA synthesis, biotin-labeled cRNA synthesis, and cRNA fragmentation were performed according to the Affymetrix GeneChip Eukaryotic Expression Analysis protocol. The labeled, fragmented cRNA (15 μg) was hybridized at 45° C. overnight. After hybridization, the array was washed and stained. The arrays were scanned with an argon-ion laser at λ=570 nm, with a resolution of 3 μm/pixel (Affymetrix, Inc.). After scanning the array, the raw probe level values for each probe were saved in Affymetrix.cel files. […] Statistical analyses, including t-test analyses, unsupervised hierarchical clustering, and principal component analyses were conducted using Genespring 7.2 software ([…]® 7, Silicon Genetics, Redwood City Calif.). […] Corrections for multiple comparisons used a Benjamini-Hochberg False Discovery Rate (FDR) of 0.05, disclosed in Tang et al., J Cereb Blood Flow Metab 26 (2006) 1089, which is expressly incorporated by reference herein in its entirety. […] Sample processing and array hybridization, probe-level data analysis, and statistical analysis were identical to Example 1.

## CC(=O)OCC(=O)[C@@]12N=C(C)O[C@@H]1C[C@H]1[C@@H]3CCC4=CC(=O)C=C[C@]4(C)[C@H]3[C@@H](O)C[C@@]12C [deflazacort]
Deflazacort vs. prednisone, NM_004862, Nucleic Acid No. 2094
  p-value (t-test, deflazacort vs prednisone): 0.0123
Deflazacort vs. prednisone, NM_005306, Nucleic Acid No. 2036
  p-value (t-test, deflazacort vs. prednisone): 0.00696
Deflazacort vs. prednisone, NM_005345, Nucleic Acid No. 275
  p-value (t-test, deflazacort vs. prednisone): 0.0354
Deflazacort vs. prednisone, NM_005461, Nucleic Acid No. 1310
  p-value: 0.0317
Deflazacort vs. prednisone, NM_005502, Nucleic Acid No. 1893
  p-value: 0.00709
Deflazacort vs. prednisone, NM_005569, Nucleic Acid No. 2093
  p-value (t-test, deflazacort vs prednisone): 0.0261
Deflazacort vs. prednisone, NM_005574, Nucleic Acid No. 2095
  p-value (t-test, deflazacort vs prednisone): 0.0476
Deflazacort vs. prednisone, NM_005720, Nucleic Acid No. 1912
  p-value: 0.0485
Deflazacort vs. prednisone, NM_005890, Nucleic Acid No. 2024
  p-value: 0.0113
Deflazacort vs. prednisone, NM_006018, Nucleic Acid No. 2035
  p-value (t-test, deflazacort vs. prednisone): 0.000507
Deflazacort vs. prednisone, NM_006332, Nucleic Acid No. 2055
  p-value (t-test, deflazacort vs. prednisone): 0.0414
Deflazacort vs. prednisone, NM_006854, Nucleic Acid No. 2078
  p-value: 0.0129
Deflazacort vs. prednisone, NM_006863, Nucleic Acid No. 2092
  p-value (t-test, deflazacort vs prednisone): 0.00957
Deflazacort vs. prednisone, NM_014179, Nucleic Acid No. 2051
  p-value (t-test, deflazacort vs. prednisone): 0.0407
Deflazacort vs. prednisone, NM_014339, Nucleic Acid No. 2058
  p-value (t-test, deflazacort vs. prednisone): 0.0463
Deflazacort vs. prednisone, NM_014656, Nucleic Acid No. 2079
  p-value (t-test, deflazacort vs prednisone): 0.00329
Deflazacort vs. prednisone, NM_018690, Nucleic Acid No. 1907
  p-value: 0.00658
Deflazacort vs. prednisone, NM_019043, Nucleic Acid No. 1040
  p-value: 0.0288
Deflazacort vs. prednisone, NM_020179, Nucleic Acid No. 2016
  p-value (t-test, deflazacort vs. prednisone): 0.0196
Deflazacort vs. prednisone, NM_020386, Nucleic Acid No. 2046
  p-value (t-test, deflazacort vs. prednisone): 0.0129
Deflazacort vs. prednisone, NM_152641, Nucleic Acid No. 1576
  p-value: 0.0457
Deflazacort vs. prednisone, R38084, Nucleic Acid No. 2026
  p-value (t-test, deflazacort vs. prednisone): 0.0133
Deflazacort vs. prednisone, S72848, Nucleic Acid No. 1686
  p-value: 0.0226
Deflazacort vs. prednisone, T85248, Nucleic Acid No. 1311
  p-value (t-test, deflazacort vs prednisone): 0.0383
Deflazacort vs. prednisone, U48734, Nucleic Acid No. 1898
  p-value: 0.0349
Deflazacort vs. prednisone, U65590, Nucleic Acid No. 2061
  p-value (t-test, deflazacort vs. prednisone): 0.00419
Deflazacort vs. prednisone, U70064, Nucleic Acid No. 414
  p-value: 0.0255
Deflazacort vs. prednisone, U81501, Nucleic Acid No. 2021
  p-value (t-test, deflazacort vs. prednisone): 0.0425
Deflazacort vs. prednisone, U93240, Nucleic Acid No. 2086
  p-value (t-test, deflazacort vs prednisone): 0.0114
Deflazacort vs. prednisone, U97075, Nucleic Acid No. 1949
  p-value: 0.0264
Deflazacort vs. prednisone, W27419, Nucleic Acid No. 2052
  p-value (t-test, deflazacort vs. prednisone): 0.0306
Deflazacort vs. prednisone, W93728, Nucleic Acid No. 1590
  p-value (t-test, deflazacort vs. prednisone): 0.0103
Deflazacort vs. prednisone, W95007, Nucleic Acid No. 1896
  p-value: 0.0111
Deflazacort vs. prednisone, X51757, Nucleic Acid No. 2050
  p-value (t-test, deflazacort vs. prednisone): 0.0352
Gene M-RIP, Genbank BF515158, Nucleic Acid No. 2128
  p-value: 0.0466
Gene MLKL, Genbank AA706818, Nucleic Acid No. 2125
  p-value: 0.031
Gene MLL3, Genbank AI057455, Nucleic Acid No. 2126
  p-value: 0.0474
Gene MLLT2, Genbank AA703523, Nucleic Acid No. 2127
  p-value: 0.0149
Gene MLSTD1, Genbank NM_018099, Nucleic Acid No. 1848
  p-value: 0.0331
Gene MS4A7, Genbank AF237916, Nucleic Acid No. 2129
  p-value: 0.0291
Gene MTF1, Genbank NM_005955, Nucleic Acid No. 2130
  p-value: 5.84E−05
Gene MX2, Genbank NM_002463, Nucleic Acid No. 2131
  p-value: 0.0283
Gene MYADM, Genbank BE908995, Nucleic Acid No. 2132
  p-value: 0.0206
Gene MYLIP, Genbank AW292746, Nucleic Acid No. 2133
  p-value: 0.00321
Gene MYO1F, Genbank BF740152, Nucleic Acid No. 2134
  p-value: 0.0266
Gene N4BP1, Genbank AB014515, Nucleic Acid No. 2135
  p-value: 0.0291
Gene NCF2, Genbank BC001606, Nucleic Acid No. 2136
  p-value: 0.0348
Gene NCOA1, Genbank BF576458, Nucleic Acid No. 2137
  p-value: 0.00399
Gene NCOA6, Genbank AF128458, Nucleic Acid No. 926
  p-value: 0.0221
Gene NDE1, Genbank BF973292, Nucleic Acid No. 2138
  p-value: 0.024
Gene NDE1, Genbank NM_017668, Nucleic Acid No. 2139
  p-value: 0.0358
Gene NFIC, Genbank AW134798, Nucleic Acid No. 2140
  p-value: 0.0141
Gene NKTR, Genbank AI880383, Nucleic Acid No. 2141
  p-value: 0.0222
Gene NOTCH2, Genbank AA291203, Nucleic Acid No. 2142
  p-value: 0.00739
Gene NOTCH2, Genbank AF308601, Nucleic Acid No. 1046
  p-value: 0.0265
Gene NOTCH2NL, Genbank AW516297, Nucleic Acid No. 2143
  p-value: 0.0362
Gene NSF, Genbank AK025172, Nucleic Acid No. 2144
  p-value: 0.0411
Gene OLIG1, Genbank AL355743, Nucleic Acid No. 1399
  p-value: 0.00583
Gene OSTF1, Genbank NM_012383, Nucleic Acid No. 2145
  p-value: 0.0203
Gene PACSIN2, Genbank NM_007229, Nucleic Acid No. 2146
  p-value: 0.0409
Gene PAPD4, Genbank AW104325, Nucleic Acid No. 2147
  p-value: 0.00878
Gene PARP9, Genbank AI738416, Nucleic Acid No. 2148
  p-value: 0.0394
Gene PARVG, Genbank AL355092, Nucleic Acid No. 2149
  p-value: 0.0293
Gene PB1, Genbank H79538, Nucleic Acid No. 2150
  p-value: 0.0371
Gene PBX2, Genbank BE397715, Nucleic Acid No. 2151
  p-value: 0.0221
Gene PCBP2, Genbank AW025150, Nucleic Acid No. 2152
  p-value: 0.0394
Gene PDLIM5, Genbank NM_006457, Nucleic Acid No. 2153
  p-value: 0.0238
